Activity calls are given as the source filed them. Rule as the data show it, for most assays here: actives have a measured EC50 and inactives only a lower limit.
Legend:
Nonstructural protein 1 = Nonstructural protein 1 (Influenza A virus, UniProt Q194T2); format: functional, Influenza A virus (A/California/07/2009(H1N1))
[1] = molecular target: Heat shock protein HSP 90-alpha (Homo sapiens, UniProt P07900); format: functional, organism-based
Genome polyprotein = Genome polyprotein (dengue virus type 2, UniProt P29990); experiment: Dengue-2 NS5 methyltransferase inhibitors, primary screen, biochemical, confirmation dose response (AID 588689); format: functional
[2] = molecular target: T1, Histone-lysine N-methyltransferase NSD2 (Homo sapiens, UniProt O96028); format: biochemical
T1 sequence (O96028 whole entry): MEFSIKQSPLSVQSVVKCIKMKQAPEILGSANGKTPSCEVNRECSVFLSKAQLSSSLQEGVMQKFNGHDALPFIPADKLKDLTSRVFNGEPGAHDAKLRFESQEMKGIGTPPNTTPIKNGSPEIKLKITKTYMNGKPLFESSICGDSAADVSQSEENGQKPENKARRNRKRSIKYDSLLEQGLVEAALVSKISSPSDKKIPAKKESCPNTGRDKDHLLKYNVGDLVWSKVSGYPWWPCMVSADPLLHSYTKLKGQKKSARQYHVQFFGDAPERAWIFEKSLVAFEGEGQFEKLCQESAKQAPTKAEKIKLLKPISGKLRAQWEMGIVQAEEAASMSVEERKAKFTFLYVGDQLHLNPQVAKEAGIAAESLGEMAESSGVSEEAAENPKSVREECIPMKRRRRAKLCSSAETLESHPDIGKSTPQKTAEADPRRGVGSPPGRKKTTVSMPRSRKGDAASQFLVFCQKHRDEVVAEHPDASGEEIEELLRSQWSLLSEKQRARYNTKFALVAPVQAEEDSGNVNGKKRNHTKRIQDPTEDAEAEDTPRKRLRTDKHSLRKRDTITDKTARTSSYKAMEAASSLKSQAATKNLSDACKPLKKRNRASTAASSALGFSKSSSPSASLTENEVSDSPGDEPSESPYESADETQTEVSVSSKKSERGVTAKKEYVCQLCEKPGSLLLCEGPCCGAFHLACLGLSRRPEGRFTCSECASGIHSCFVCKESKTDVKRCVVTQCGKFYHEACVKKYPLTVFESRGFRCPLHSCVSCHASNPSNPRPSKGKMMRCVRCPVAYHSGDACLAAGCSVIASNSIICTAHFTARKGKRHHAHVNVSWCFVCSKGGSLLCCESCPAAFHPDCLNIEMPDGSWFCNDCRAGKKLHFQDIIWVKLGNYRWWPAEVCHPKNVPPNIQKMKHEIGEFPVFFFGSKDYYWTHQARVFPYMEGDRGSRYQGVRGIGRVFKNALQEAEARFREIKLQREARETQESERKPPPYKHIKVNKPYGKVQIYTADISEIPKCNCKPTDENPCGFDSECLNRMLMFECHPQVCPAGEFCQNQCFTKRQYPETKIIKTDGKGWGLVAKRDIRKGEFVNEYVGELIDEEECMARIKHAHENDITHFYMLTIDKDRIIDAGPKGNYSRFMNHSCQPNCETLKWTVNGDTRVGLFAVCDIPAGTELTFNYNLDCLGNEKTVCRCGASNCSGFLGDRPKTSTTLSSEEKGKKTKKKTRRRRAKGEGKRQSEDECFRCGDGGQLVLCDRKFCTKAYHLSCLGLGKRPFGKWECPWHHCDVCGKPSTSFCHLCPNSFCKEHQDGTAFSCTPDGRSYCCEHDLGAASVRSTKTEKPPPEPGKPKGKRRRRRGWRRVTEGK

Leucine aminopeptidase = molecular target: T2, Leucine aminopeptidase (Plasmodium falciparum 3D7, UniProt Q8IL11); experiment: P. falciparum M17LAP inhibitors, primary screen, biochemical, fluorogenic H-Leu-NHMec substrate, 1536-well (AID 1619); format: functional
T2 sequence (Q8IL11 whole entry): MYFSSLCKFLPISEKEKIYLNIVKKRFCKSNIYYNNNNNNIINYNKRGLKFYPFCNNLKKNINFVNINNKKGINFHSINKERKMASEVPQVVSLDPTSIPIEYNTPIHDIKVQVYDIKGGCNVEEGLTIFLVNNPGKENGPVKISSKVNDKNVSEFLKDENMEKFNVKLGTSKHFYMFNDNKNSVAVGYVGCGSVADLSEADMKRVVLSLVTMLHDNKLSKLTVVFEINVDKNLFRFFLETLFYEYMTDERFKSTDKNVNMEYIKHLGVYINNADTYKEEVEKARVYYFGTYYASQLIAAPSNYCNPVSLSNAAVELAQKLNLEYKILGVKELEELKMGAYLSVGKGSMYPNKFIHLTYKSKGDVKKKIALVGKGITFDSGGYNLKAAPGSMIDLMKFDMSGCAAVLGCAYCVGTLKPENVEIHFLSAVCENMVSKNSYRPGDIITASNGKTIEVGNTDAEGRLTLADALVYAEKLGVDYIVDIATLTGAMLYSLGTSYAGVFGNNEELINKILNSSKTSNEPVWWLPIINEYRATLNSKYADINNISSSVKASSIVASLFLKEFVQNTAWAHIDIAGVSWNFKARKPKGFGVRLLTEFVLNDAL

[3] = molecular target: T3, Zinc finger protein mex-5 (Caenorhabditis elegans, UniProt Q9XUB2); experiment: MEX-5/TCR-2 RNA interaction inhibitors, dose response, biochemical, C. elegans, fluorescence polarization (AID 1960)
T3 sequence (Q9XUB2 whole entry): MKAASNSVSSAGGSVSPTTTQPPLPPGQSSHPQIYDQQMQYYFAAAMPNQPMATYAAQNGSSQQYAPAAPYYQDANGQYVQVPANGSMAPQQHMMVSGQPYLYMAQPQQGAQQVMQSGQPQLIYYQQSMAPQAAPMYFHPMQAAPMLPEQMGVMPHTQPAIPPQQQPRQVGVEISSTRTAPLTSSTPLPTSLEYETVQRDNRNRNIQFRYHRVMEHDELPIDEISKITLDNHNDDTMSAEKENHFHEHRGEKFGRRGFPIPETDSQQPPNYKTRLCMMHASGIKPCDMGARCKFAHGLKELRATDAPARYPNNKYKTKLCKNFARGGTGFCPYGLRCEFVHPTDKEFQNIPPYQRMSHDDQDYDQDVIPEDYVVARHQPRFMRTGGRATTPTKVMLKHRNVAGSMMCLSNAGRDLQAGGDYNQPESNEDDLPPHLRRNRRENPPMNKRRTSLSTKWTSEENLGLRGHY

[4] = molecular target: T4, RNA-binding protein pos-1 (Caenorhabditis elegans, UniProt G5EF15); experiment: inhibitors of POS-1/mex-3 RNA binding, dose response, biochemical, fluorescence polarization (AID 1964);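 also: purified POS-1 fused to maltose binding protein made in E. coli; potency of compounds blocking POS-1 binding to fluorescent RNA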
T4 sequence (G5EF15 whole entry): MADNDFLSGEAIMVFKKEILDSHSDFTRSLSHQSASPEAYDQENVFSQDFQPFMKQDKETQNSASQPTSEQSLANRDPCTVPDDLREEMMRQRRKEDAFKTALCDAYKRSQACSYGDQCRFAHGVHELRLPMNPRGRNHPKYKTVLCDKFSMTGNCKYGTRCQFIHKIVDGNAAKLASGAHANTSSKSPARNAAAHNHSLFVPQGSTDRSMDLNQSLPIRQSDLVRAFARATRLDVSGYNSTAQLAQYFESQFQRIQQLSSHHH

[5] = molecular target: T5, Carboxy-terminal domain RNA polymerase II polypeptide A small phosphatase 1 (Homo sapiens, UniProt Q9GZU7); experiment: inhibitors of CTDSP1, concentration-response testing, biochemical assay, absorbance-based, actives from ultra-high-throughput screening (AID 540297); format: functional
T5 sequence (Q9GZU7 whole entry): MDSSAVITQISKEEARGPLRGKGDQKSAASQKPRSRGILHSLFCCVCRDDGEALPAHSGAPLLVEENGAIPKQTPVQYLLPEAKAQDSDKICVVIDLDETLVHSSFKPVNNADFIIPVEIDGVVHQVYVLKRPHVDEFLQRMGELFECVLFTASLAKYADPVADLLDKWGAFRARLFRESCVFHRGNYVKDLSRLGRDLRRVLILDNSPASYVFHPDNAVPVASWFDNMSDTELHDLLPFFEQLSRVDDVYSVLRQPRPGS

[6] = Luminescence Cell-Based Dose Response HTS to Identify Inhibitors of 5'UTR Stem-Loop Driven Prion Protein mRNA Translation in H4 Neuroglioblastoma Cells. [Related pubchem assays: 1827 (Project Summary), 1813 (Primary HTS)]; format: functional
[7] = inhibitors of intracellular T. cruzi replication, confirmation, NIH3T3 host cells, beta-gal luminescence (AID 2044); format: functional, cell-based;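 also: intracellular parasites grown in NIH/3T3 mouse fibroblasts as host cells; luminescent beta-galactosidase reporter signal from transgenic T. cruzi replicating inside host cells; inhibitors lower the luminescence signal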
[8] = cytotoxicity toward NIH3T3 fibroblasts, dose response, counter-screen, cell-based, ATP luminescence, mouse fibroblasts (AID 2010); format: functional;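 also: cells exposed to compound for about 90 hours before reading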
Streptococcus = experiment: Group A Streptococcus viability loss, dose response, counter-screen for streptokinase expression inhibitor project, luminescence, BacTiterGlo (AID 1915); format: functional, organism-based;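 also: potency for reduction of bacterial viability or growth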
[9] = system: Streptococcus sp. 'group A'; experiment: growth inhibition of control SK(-) GAS strain, dose response, counter-screen for streptokinase expression inhibitor project, luminescence, kanamycin, BacTiterGlo, confirmation (AID 1900); format: functional, organism-based
[10] = inhibitors of firefly luciferase expression or activity, dose response, H4 neuroglioma cells, luminescence (AID 1990); format: functional, cell-based
[11] = inhibitors of SNCA 5'UTR-driven reporter translation, confirmation, H4 neuroglioma cells, luminescence (AID 1988); format: functional, cell-based
[12] = cytotoxicity in KRAS-transformed pancreatic duct cells, primary screen, cell-based, fluorescence, HTS (AID 431); format: functional; conditions: Homo sapiens;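 also: cell line used: HPDE-C7K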
[13] = cytotoxicity in HPDE-C7 cells, cell-based, fluorescence, HTS (AID 430); format: functional; conditions: Homo sapiens
INS1 = experiment: beta cell apoptosis inhibitors, cytokine rescue, dose response, luminescence, retest (AID 449756); format: functional, cell-based; conditions: Rattus norvegicus;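 also: cell death triggered by IL-1 beta plus TNF-alpha plus IFN-gamma mixture; protective hits raise ATP signal compared with cytokine alone wells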
[14] = microbe, parasite or virus in culture; format: functional; conditions: Mycobacterium tuberculosis
[15] = growth suppression of beta-catenin-knockout colon cells, dose response, cell-based, HCT116, human colon tumor (AID 1045); format: functional;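 also: HCT116 colon tumor cells with beta catenin knocked out; cells exposed to compound for 60 hours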
[16] = growth suppression of PTEN-null colon cells, dose response, cell-based, HCT116 PTEN knockout (AID 1047); format: functional;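 also: HCT116 colon tumor cells with PTEN knocked out; cells exposed to compound for 60 hours before readout; potency for loss of cell viability measured by luminescence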
[17] = molecular target: Luciferin 4-monooxygenase (Photinus pyralis, UniProt P08659); experiment: firefly luciferase enzyme inhibitors, dose response, biochemical, luminescence (AID 1891)
[18] = Luminescence Cell-Based Dose Confirmation HTS to Identify Inhibitors of Platelet Dense Granule Release. [Related pubchem assays: 1663 (Primary HTS), 1678 (Summary of Project)]; format: functional
[19] = molecular target: Induced myeloid leukemia cell differentiation protein Mcl-1 (Homo sapiens, UniProt Q07820); format: functional
Chain of Induced myeloid leukemia cell differentiation protein Mcl-1 (Q07820 whole entry): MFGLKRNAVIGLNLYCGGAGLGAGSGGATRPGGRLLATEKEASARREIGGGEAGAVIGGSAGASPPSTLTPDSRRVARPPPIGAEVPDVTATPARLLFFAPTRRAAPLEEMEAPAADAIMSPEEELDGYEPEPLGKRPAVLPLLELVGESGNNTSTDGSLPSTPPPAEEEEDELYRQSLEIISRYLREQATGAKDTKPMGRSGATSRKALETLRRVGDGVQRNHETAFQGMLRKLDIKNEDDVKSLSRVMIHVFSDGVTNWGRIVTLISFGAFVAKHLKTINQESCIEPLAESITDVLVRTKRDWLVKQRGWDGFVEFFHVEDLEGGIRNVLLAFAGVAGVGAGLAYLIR

Chain of Nonstructural protein 1 (Q194T2 whole entry): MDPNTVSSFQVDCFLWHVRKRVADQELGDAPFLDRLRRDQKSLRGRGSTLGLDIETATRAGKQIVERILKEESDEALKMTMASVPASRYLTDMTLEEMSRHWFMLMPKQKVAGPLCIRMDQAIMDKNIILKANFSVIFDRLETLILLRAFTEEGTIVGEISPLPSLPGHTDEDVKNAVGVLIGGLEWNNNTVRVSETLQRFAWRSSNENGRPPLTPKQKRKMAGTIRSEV
Chain of Genome polyprotein (P29990 2492-3391 limits assumed): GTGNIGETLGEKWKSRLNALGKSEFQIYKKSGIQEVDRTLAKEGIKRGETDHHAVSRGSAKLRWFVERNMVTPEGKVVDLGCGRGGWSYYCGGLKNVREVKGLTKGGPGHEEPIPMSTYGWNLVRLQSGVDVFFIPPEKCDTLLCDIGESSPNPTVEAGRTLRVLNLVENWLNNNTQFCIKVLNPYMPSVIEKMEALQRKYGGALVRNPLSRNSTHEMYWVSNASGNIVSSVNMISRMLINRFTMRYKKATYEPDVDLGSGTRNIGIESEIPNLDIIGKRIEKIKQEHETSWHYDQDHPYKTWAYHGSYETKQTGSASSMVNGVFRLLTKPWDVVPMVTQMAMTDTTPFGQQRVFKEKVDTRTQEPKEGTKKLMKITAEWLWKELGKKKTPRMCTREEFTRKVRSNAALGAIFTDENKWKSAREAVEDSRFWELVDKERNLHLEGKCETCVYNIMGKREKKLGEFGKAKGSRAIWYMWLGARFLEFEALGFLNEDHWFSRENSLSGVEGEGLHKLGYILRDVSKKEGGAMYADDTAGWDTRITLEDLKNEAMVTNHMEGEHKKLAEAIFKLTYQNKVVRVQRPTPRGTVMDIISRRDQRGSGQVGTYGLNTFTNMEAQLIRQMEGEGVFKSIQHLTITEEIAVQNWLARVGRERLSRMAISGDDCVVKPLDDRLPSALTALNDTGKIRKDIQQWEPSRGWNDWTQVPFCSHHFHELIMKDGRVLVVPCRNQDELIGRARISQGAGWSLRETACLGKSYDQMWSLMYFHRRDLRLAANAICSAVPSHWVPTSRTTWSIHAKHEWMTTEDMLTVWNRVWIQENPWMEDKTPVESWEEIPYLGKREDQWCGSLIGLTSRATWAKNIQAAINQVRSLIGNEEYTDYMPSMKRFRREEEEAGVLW
Chain of Luciferin 4-monooxygenase (P08659 whole entry): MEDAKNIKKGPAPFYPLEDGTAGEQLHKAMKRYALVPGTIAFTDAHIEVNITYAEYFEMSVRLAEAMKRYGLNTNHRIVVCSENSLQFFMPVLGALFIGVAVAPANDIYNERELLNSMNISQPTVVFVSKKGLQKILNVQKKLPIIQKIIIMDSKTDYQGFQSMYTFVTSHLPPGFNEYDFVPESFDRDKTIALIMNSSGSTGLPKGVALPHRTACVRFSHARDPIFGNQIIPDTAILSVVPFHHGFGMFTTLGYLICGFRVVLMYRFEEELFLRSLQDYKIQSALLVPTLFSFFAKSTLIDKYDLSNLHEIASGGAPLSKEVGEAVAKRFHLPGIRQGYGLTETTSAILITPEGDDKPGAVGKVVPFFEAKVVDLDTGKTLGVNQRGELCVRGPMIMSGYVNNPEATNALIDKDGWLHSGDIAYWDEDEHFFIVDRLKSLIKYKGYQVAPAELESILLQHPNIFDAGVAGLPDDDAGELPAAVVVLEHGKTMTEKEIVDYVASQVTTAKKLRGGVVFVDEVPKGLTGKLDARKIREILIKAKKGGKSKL

Cc1cc(NC(=O)CSc2nnc(-c3ccco3)o2)no1
IC50 (Nonstructural protein 1): 32.4 µM (active)

COC(=O)c1ccc(N2C(=O)CC(N(C)Cc3ccccc3)C2=O)cc1 (stereo not drawn)
AC50 [1]: 7.7 µM (active)

COc1ccccc1/C=C1\SC(=S)N(NS(=O)(=O)c2ccc(C)cc2)C1=O
IC50 (Genome polyprotein): 34.7 µM (active)

Cc1cc(/C=C(/C#N)c2nc3ccccc3[nH]2)c(C)n1-c1cc(C(=O)O)cc(C(=O)O)c1
AC50 [2]: > 20 µM (inactive)
IC50 (Leucine aminopeptidase): 42.6 µM (active)
EC50 [3]: 41.4 µM (active)
EC50 [4]: 59.3 µM (active)
IC50 [5]: 5.68 µM (active)

Oc1ccc(CN2CCN(c3ccccc3)CC2)c2cccnc12
EC50 [6]: 9.95 µM (active)
EC50 [7]: 1.86 µM (active)
IC50 (Nonstructural protein 1): 59.1 µM (active)
EC50 [8]: > 60 µM (not active)
EC50 (Streptococcus): 7.49 µM (active)
EC50 [9]: 5.48 µM (active)
EC50 [10]: 11.9 µM (active)
EC50 [11]: 9.72 µM (active)

COC(=O)c1c(O)[n+]([O-])c2ccc(OC)cc2[n+]1[O-]
EC50 [3]: > 300 µM (inconclusive)
EC50 [4]: 14.1 µM (active)

Cc1cc(C)c(S(=O)(=O)NCC23C=CC(O2)C2C(=O)N(c4ccccc4)C(=O)C23)c(C)c1 (stereo not drawn)
AC50 [1]: 10.1 µM (active)

CC(C)(C)OC(=O)N[C@@H](Cc1ccccc1)c1nnc(S(=O)(=O)Cc2ccccc2)o1
EC50 [12]: > 20 µM (not active)
EC50 [13]: 16.9 µM (active)

Cc1ccc(-c2nnc(Nc3ccc(CC(N)=O)cc3)c3ccccc23)cc1S(N)(=O)=O
EC50 [3]: > 300 µM (not active)
EC50 [4]: > 300 µM (not active)

O=C1C([N-]S(=O)(=O)c2cccs2)=C([n+]2ccc(CCCc3ccccc3)cc2)C(=O)c2ccccc21
AC50 (INS1): 8.75 µM (active)
EC50 [6]: > 120 µM (not active)
EC50 [3]: 97 µM (active)
EC50 [4]: 119 µM (active)
EC50 [10]: 10.5 µM (active)
CC50 [14]: 9.69 µM (active)
EC50 [11]: 8.36 µM (active)

CC1=N/C(=C/c2ccco2)C(=O)O1
EC50 [3]: 33.1 µM (active)
EC50 [4]: 71.1 µM (active)

CN1c2ccccc2C(C)(C)C12C=Cc1cc(O)ccc1O2 (stereo not drawn)
EC50 [15]: 18.4 µM (active)
EC50 [12]: > 20 µM (not active)
EC50 [13]: 15.2 µM (active)
EC50 [16]: 36.4 µM (active)

Cc1ccc2c(c1)c1ncnc(N3CCc4ccccc4C3)c1n2C
EC50 [12]: 11.7 µM (active)
EC50 [13]: 11.4 µM (active)
CC50 [14]: > 40 µM (active)

O=C(O)CN1C(=O)/C(=C\c2cccc(OCc3ccc(F)cc3)c2)SC1=S
IC50 (Genome polyprotein): 42.6 µM (active)

O=C1CC2CCCN2C=C1I (stereo not drawn)
IC50 (Genome polyprotein): 62.7 µM (active)
IC50 [5]: 5.48 µM (active)

O=C1NC(=O)C(=Cc2ccccc2[N+](=O)[O-])C(=O)N1
IC50 (Genome polyprotein): 27.3 µM (active)

Oc1nccc(N/N=C/c2ccccc2O)n1
AC50 (INS1): 0.625 µM (active)
EC50 [17]: 36.3 µM (active)
IC50 (Nonstructural protein 1): 10.3 µM (active)
EC50 [18]: 4.11 µM (active)

O=C(COC(=O)c1cc(-c2ccco2)nc2ccccc12)NCc1ccc2c(c1)OCO2
IC50 [19]: < 0.4 µM (active)

Reference: ChEMBL document CHEMBL1201862, “PubChem BioAssay data set” (2004)
